Measurements reported in PubChem BioAssay (NCI).
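Grown in 96-well plates, cells were treated for 48 hours with each compound at five concentrations. Insufficient inhibition: endpoint recorded as highest concentration tested. Abbreviation: GI50, concentration required for 50% inhibition of growth. TGI marks complete inhibition of growth.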

Legend:
Experiment in all cases: growth of human tumour cells (NCI), 48 h
KM12 colon = test system: KM12 colon
HL-60(TB) leukemia = test system: HL-60(TB) leukemia
BT-549 breast = test system: BT-549 breast
NCI-H23 lung = test system: NCI-H23 lung
ACHN renal = test system: ACHN renal
786-0 renal = test system: 786-0 renal
SK-MEL-5 melanoma = test system: SK-MEL-5 melanoma
HT29 colon = test system: HT29 colon
SK-MEL-2 melanoma = test system: SK-MEL-2 melanoma
SNB-75 CNS = test system: SNB-75 CNS
HCT-116 colon = test system: HCT-116 colon
UACC-257 melanoma = test system: UACC-257 melanoma
UACC-62 melanoma = test system: UACC-62 melanoma
HS 578T breast = test system: HS 578T breast
SK-OV-3 ovarian = test system: SK-OV-3 ovarian
PC-3 prostate = test system: PC-3 prostate
COLO 205 colon = test system: COLO 205 colon
HOP-62 NSCLC = test system: HOP-62 NSCLC
SF-539 CNS = test system: SF-539 CNS
IGROV1 ovarian = test system: IGROV1 ovarian
MCF7 breast = test system: MCF7 breast
SK-MEL-28 melanoma = test system: SK-MEL-28 melanoma
NCI-H522 lung = test system: NCI-H522 lung
NCI-H226 lung = test system: NCI-H226 lung
LOX IMVI melanoma = test system: LOX IMVI melanoma
RPMI-8226 leukemia = test system: RPMI-8226 leukemia
SF-268 CNS = test system: SF-268 CNS
HCT-15 colon = test system: HCT-15 colon
SR leukemia = test system: SR leukemia
HOP-92 NSCLC = test system: HOP-92 NSCLC
RXF 393 renal = test system: RXF 393 renal
UO-31 renal = test system: UO-31 renal
SF-295 CNS = test system: SF-295 CNS
SNB-19 CNS = test system: SNB-19 CNS
MDA-MB-435 = test system: MDA-MB-435
CCRF-CEM leukemia = test system: CCRF-CEM leukemia
TK-10 renal = test system: TK-10 renal
HCC-2998 colon = test system: HCC-2998 colon
OVCAR-3 ovarian = test system: OVCAR-3 ovarian
A498 renal = test system: A498 renal
OVCAR-4 ovarian = test system: OVCAR-4 ovarian
CAKI-1 renal = test system: CAKI-1 renal
OVCAR-8 ovarian = test system: OVCAR-8 ovarian
DU-145 prostate = test system: DU-145 prostate
K-562 leukemia = test system: K-562 leukemia
SW-620 colon = test system: SW-620 colon
EKVX NSCLC = test system: EKVX NSCLC
MDA-MB-231 breast = test system: MDA-MB-231 breast
NCI-H460 lung = test system: NCI-H460 lung
M14 melanoma = test system: M14 melanoma
NCI/ADR-RES ovarian = test system: NCI/ADR-RES ovarian
MALME-3M melanoma = test system: MALME-3M melanoma
T-47D breast = test system: T-47D breast
A549 NSCLC = test system: A549 NSCLC
OVCAR-5 ovarian = test system: OVCAR-5 ovarian
U251 CNS = test system: U251 CNS
SN12C renal = test system: SN12C renal

SMILES: CC1CN=C(c2cccc(-c3ccc(-c4ccccc4)o3)c2)N1 (centres undefined)
- GI50 (KM12 colon): 2.66 µM
- TGI (KM12 colon): 7.92 µM
- GI50 (HL-60(TB) leukemia): 2.28 µM
- TGI (HL-60(TB) leukemia): 4.7 µM
- GI50 (BT-549 breast): 10.5 µM
- TGI (BT-549 breast): 22.5 µM
- GI50 (NCI-H23 lung): 2.97 µM
- TGI (NCI-H23 lung): 12.5 µM
- GI50 (ACHN renal): 1.85 µM
- TGI (ACHN renal): 3.89 µM
- GI50 (786-0 renal): 1.84 µM
- TGI (786-0 renal): 3.8 µM
- GI50 (SK-MEL-5 melanoma): 1.71 µM
- TGI (SK-MEL-5 melanoma): 3.11 µM
- GI50 (HT29 colon): 2.39 µM
- TGI (HT29 colon): 4.93 µM
- GI50 (SK-MEL-2 melanoma): 1.74 µM
- TGI (SK-MEL-2 melanoma): 3.57 µM
- GI50 (SNB-75 CNS): 1.47 µM
- TGI (SNB-75 CNS): 2.84 µM
- GI50 (HCT-116 colon): 1.81 µM
- TGI (HCT-116 colon): 3.69 µM
- GI50 (UACC-257 melanoma): 2.31 µM
- TGI (UACC-257 melanoma): 4.62 µM
- GI50 (UACC-62 melanoma): 1.94 µM
- TGI (UACC-62 melanoma): 4.06 µM
- GI50 (HS 578T breast): 2.57 µM
- TGI (HS 578T breast): 7.26 µM
- GI50 (SK-OV-3 ovarian): 4.2 µM
- TGI (SK-OV-3 ovarian): 14.8 µM
- GI50 (PC-3 prostate): 2.04 µM
- TGI (PC-3 prostate): 5.17 µM
- GI50 (COLO 205 colon): 1.61 µM
- TGI (COLO 205 colon): 3.25 µM
- GI50 (HOP-62 NSCLC): 2.6 µM
- TGI (HOP-62 NSCLC): 6.37 µM
- GI50 (SF-539 CNS): 1.76 µM
- TGI (SF-539 CNS): 3.42 µM
- GI50 (IGROV1 ovarian): 2.08 µM
- TGI (IGROV1 ovarian): 5.14 µM
- GI50 (MCF7 breast): 1.71 µM
- TGI (MCF7 breast): 3.59 µM
- GI50 (SK-MEL-28 melanoma): 1.81 µM
- TGI (SK-MEL-28 melanoma): 4.02 µM
- GI50 (NCI-H522 lung): 1.67 µM
- TGI (NCI-H522 lung): 3.65 µM
- GI50 (NCI-H226 lung): 14.3 µM
- TGI (NCI-H226 lung): 39.4 µM
- GI50 (LOX IMVI melanoma): 1.73 µM
- TGI (LOX IMVI melanoma): 3.22 µM
- GI50 (RPMI-8226 leukemia): 2.43 µM
- TGI (RPMI-8226 leukemia): 7.05 µM
- GI50 (SF-268 CNS): 1.83 µM
- TGI (SF-268 CNS): 3.78 µM
- GI50 (HCT-15 colon): 1.66 µM
- TGI (HCT-15 colon): 3.47 µM
- GI50 (SR leukemia): 1.86 µM
- TGI (SR leukemia): 5.32 µM
- GI50 (HOP-92 NSCLC): 2.13 µM
- TGI (HOP-92 NSCLC): 5.67 µM
- GI50 (RXF 393 renal): 1.72 µM
- TGI (RXF 393 renal): 3.36 µM
- GI50 (UO-31 renal): 1.62 µM
- TGI (UO-31 renal): 3.32 µM
- GI50 (SF-295 CNS): 1.81 µM
- TGI (SF-295 CNS): 3.84 µM
- GI50 (SNB-19 CNS): 2.29 µM
- TGI (SNB-19 CNS): 5.47 µM
- GI50 (MDA-MB-435): 1.61 µM
- TGI (MDA-MB-435): 2.99 µM
- GI50 (CCRF-CEM leukemia): 2.44 µM
- TGI (CCRF-CEM leukemia): 6.78 µM
- GI50 (TK-10 renal): 4.04 µM
- TGI (TK-10 renal): 14.4 µM
- GI50 (HCC-2998 colon): 1.95 µM
- TGI (HCC-2998 colon): 3.65 µM
- GI50 (OVCAR-3 ovarian): 3.47 µM
- TGI (OVCAR-3 ovarian): 13.7 µM
- GI50 (A498 renal): 2.74 µM
- TGI (A498 renal): 10.6 µM
- GI50 (OVCAR-4 ovarian): 3.01 µM
- TGI (OVCAR-4 ovarian): 19.5 µM
- GI50 (CAKI-1 renal): 2.55 µM
- TGI (CAKI-1 renal): 9.19 µM
- GI50 (OVCAR-8 ovarian): 5.98 µM
- TGI (OVCAR-8 ovarian): 23.2 µM
- GI50 (DU-145 prostate): 4.05 µM
- TGI (DU-145 prostate): 15.8 µM
- GI50 (K-562 leukemia): 1.72 µM
- TGI (K-562 leukemia): 3.91 µM
- GI50 (SW-620 colon): 1.85 µM
- TGI (SW-620 colon): 3.69 µM
- GI50 (EKVX NSCLC): 4.35 µM
- TGI (EKVX NSCLC): 18.9 µM
- GI50 (MDA-MB-231 breast): 2.2 µM
- TGI (MDA-MB-231 breast): 4.49 µM
- GI50 (NCI-H460 lung): 1.83 µM
- TGI (NCI-H460 lung): 4.24 µM
- GI50 (M14 melanoma): 2.23 µM
- TGI (M14 melanoma): 5.63 µM
- GI50 (NCI/ADR-RES ovarian): 3.57 µM
- TGI (NCI/ADR-RES ovarian): 25.9 µM
- GI50 (MALME-3M melanoma): 1.82 µM
- TGI (MALME-3M melanoma): 3.63 µM
- GI50 (T-47D breast): 1.92 µM
- TGI (T-47D breast): 5.05 µM
- GI50 (A549 NSCLC): 3.68 µM
- TGI (A549 NSCLC): 11.2 µM
- GI50 (OVCAR-5 ovarian): 2.11 µM
- TGI (OVCAR-5 ovarian): 5.41 µM
- GI50 (U251 CNS): 2.47 µM
- TGI (U251 CNS): 5.88 µM
- GI50 (SN12C renal): 3.59 µM
- TGI (SN12C renal): 15.4 µM
